Measured values from US4677104A, “Antipsychotic fused-ring pyridinylpiperazine derivatives” (Bristol-Myers Company, priority 1986, dated 1987).

Assays:
Assay type in all cases: in vivo
[1] = system: avoidance response to electrical shock in trained fasted rats; assay: Conditioned Avoidance Response (CAR); conditions: Rattus norvegicus, po
Excerpt: Conditioned Avoidance Response (CAR) - measure of a
drug's tranquilizing activity as determined by its
attenuation of avoidance response to electrical shock
in trained fasted rats. cf: Albert, Pharmacologist, 4,

[2] = system: apomorphine-induced stereotypy in rats; assay: Inhibition of Apomorphine-Induced (APO) Stereotypy; conditions: Rattus norvegicus, po
Excerpt: 2. Inhibition of Apomorphine-Induced (APO) Stereotypy -
an assessment of blockade of dopaminergic activity in
rats as measured by attenuation of the behavioral
syndrome caused by the dopamine agonist, apomorphine.
of: Janssen, et al., Arzneimittel. Forsch., 17, 841

[3] = Catalepsy (drug-induced catalepsy); conditions: rat, in vivo, po, rats; read-out: Catalepsy Induction ED50
Excerpt: (§1) 3. Catalepsy - drug-induced catalepsy in rats is predic-
(§2) tive of potential extrapyramidal symptoms (EPS) in man.
(§3) of: Costall, et al., Psychopharmacologia, 34, 233-241

[4] = system: neuroleptic-induced catalepsy in the rat; assay: Catalepsy Reversal; conditions: po
Excerpt: 4. Catalepsy Reversal - measure of a drug's ability to
reverse neuroleptic-induced catalepsy in the rat.

[5] = system: drug-induced catalepsy in rats; assay: Catalepsy (drug-induced catalepsy); conditions: p.o.
Excerpt: as §1, §2, §3

SMILES	ED50 [1] [mg/kg]	ED50 [2] [mg/kg]	ED50 [3] [mg/kg]	ED50 [4] [mg/kg]	Catalepsy Induction ED50 [5]
O=C1COCC(=O)N1CCCCN1CCN(c2nccc3occc23)CC1 [Example 25, 4-[4-[4-(4-Furo[3,2-c]pyridinyl)-1-piperazinyl]butyl]-3,5-morpholinedione]	11	34	> 46	2	
O=C1SC2(CCCC2)C(=O)N1CCCCN1CCN(c2nccc3sccc23)CC1 [Example 26]	12	35		> 20	
Cn1ccc2c(N3CCN(CCCCN4C(=O)CC(C)(C)CC4=O)CC3)nccc21 [Example 49]	67	> 100		> 20	
Cc1cc2c(N3CCN(CCCC(O)c4ccc(F)cc4)CC3)nccc2o1 (centres unmarked) [Example 43]	23			> 20	
Cc1cc2c(N3CCN(CCCCN4C(=O)CC(C)(C)CC4=O)CC3)nccc2o1 [Example 41]	14	22	40	> 20	
O=C1CSCC(=O)N1CCCCN1CCN(c2nccc3sccc23)CC1 [Example 31]	32		> 128	> 20	
O=C1SC2(CCCC2)C(=O)N1CCCCN1CCN(c2nccc3sc(Br)cc23)CC1 [Example 28]	> 100	> 100		16	
CC1(C)CC(=O)N(CCCCN2CCN(c3nccc4sc(Br)cc34)CC2)C(=O)C1 [Example 29]	65			> 20	
O=C1CCCC(=O)N1CCCCN1CCN(c2nccc3sccc23)CC1 [Example 58]	5	56		> 20	Inactive at 4 ×
Cn1ccc2c(N3CCN(CCCCN4C(=O)SC5(CCCC5)C4=O)CC3)nccc21 [Example 47]	60	61		> 20	
Cn1ccc2c(N3CCN(CCCCN4C(=O)COCC4=O)CC3)nccc21 [Example 48]	> 100	> 100		> 20	
OC(CCCN1CCN(c2nccc3sccc23)CC1)c1ccc(F)cc1 (centres unmarked) [Example 27]	10	9	> 40	> 20	
O=C1SC2(CCCC2)C(=O)N1CCCCN1CCN(c2nccc3ccsc23)CC1 [Example 36]	43	47		> 20	
O=C1CSCC(=O)N1CCCCN1CCN(c2nccc3occc23)CC1 [Example 42]	36	63		> 20	
Cc1cc2c(N3CCN(CCCCN4C(=O)SC5(CCCC5)C4=O)CC3)nccc2o1 [Example 40]	28	41			
Cc1cc2c(N3CCN(CCCCN4C(=O)SC5(CCCC5)C4=O)CC3)nccc2s1 [Example 30]	35		> 142	> 20	
CC1(C)CC(=O)N(CCCCN2CCN(c3nccc4occc34)CC2)C(=O)C1 [Example 38]	4	7	13	> 20	
O=C1SC2(CCCC2)C(=O)N1CCCCN1CCN(c2nccc3occc23)CC1 [Example 37]	9	18	23	> 20	
CC1(C)CC(=O)N(CCCCN2CCN(c3nccc4sccc34)CC2)C(=O)C1 [Example 24, 4,4-Dimethyl-1-[4-[4-(thieno[3,2-c]pyridin-4-yl)-1-piperazinyl]butyl]-2,6-piperidinedione]	6	40	> 24	> 20	
OC(CCCN1CCN(c2nccc3occc23)CC1)c1ccc(F)cc1 (centres unmarked) [Example 39]	3	5	11	> 20	
